The record followed here is BindingDB's records for doi:10.1021/jm00398a021 (Bristol-Myers, 1988).

The assay deals with D(2) dopamine receptor (Rattus norvegicus, UniProt P61169). Briefly: ChEBML_58532. The source says:
Ability to inhibit [3H]spiperone binding to Dopamine receptor D2 in rat corpus striatum

Some results are limits rather than exact numbers.

Chain of D(2) dopamine receptor (P61169 whole entry): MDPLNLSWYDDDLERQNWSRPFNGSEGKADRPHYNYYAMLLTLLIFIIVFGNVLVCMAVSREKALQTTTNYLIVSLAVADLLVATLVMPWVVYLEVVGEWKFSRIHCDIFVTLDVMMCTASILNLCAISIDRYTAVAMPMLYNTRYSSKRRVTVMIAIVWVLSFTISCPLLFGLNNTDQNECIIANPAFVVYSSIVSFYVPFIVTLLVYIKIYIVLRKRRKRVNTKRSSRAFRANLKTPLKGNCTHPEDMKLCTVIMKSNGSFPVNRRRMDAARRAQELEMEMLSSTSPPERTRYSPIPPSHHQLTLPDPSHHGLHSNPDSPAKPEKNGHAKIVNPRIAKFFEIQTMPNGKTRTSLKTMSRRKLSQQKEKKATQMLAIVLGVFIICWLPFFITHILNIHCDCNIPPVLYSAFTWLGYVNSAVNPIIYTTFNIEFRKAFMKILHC

One may read the IC50 as the midpoint of a concentration-inhibition curve. Read a high IC50 as a need for much substance. For `O=c1scc(O)n1CCCCN1CCN(c2ccccn2)CC1`, the 50% inhibitory concentration (IC50) is above 1000 nM.
